# pIC50: −log10 of the molar value.
# Columns and labels:
# hNaV1.7 channel = target: T1, hNaV1.7 channel (Homo sapiens, UniProt Q15858); experiment: Automated patch-clamp block of hNaV1.7 peak Na+ current in CHO cells; assay type: cell-based; conditions: for pIC50: CHO cells stably expressing hNaV1.7, SyncroPatch 384 PE whole-cell, holding -100 mV, -10 mV test pulse 50 ms every 5 s, room temperature 18-22°C, 0.3% BSA, steady state or end of 15-min application, mean, S.E.M. and n cells; for hNaV1.7 IC50 versus WT: ratio of analogue mean IC50 to HwTx-IV WT mean IC50 on hNaV1.7
# T1 construct: expressed in transfected cells
# Experimental: (§1) CHO cells stably expressing the hNaV1.7 channel subtype were cultured in Dulbecco’s Modified Eagle’s Medium F-12 (DMEM/F12) supplemented with 10% fetal bovine serum, 2 mM glutamine, 200 μg/ml hygromycine B, 10 U/ml penicillin and 10 μg/ml streptomycin (Gibco, Grand Island, NY). HEK-293 cells stably expressing the hNaV1.6 channel subtype were cultured in Dulbecco’s Modified Eagle’s Medium (DMEM) supplemented with 10% fetal calf serum, 1 mM pyruvic acid, 4.5 g/L glucose, 2 mM glutamine, 800 μg/ml G418, 10 U/ml penicillin and 10 μg/ml streptomycin (Gibco, Grand Island, NY). All cell lines were incubated at 37°C in a 5% CO2 atmosphere. For electrophysiological recordings, cells were detached with trypsin, and floating single cells were diluted (∼300,000 cells/ml) in an extracellular solution containing (in mM): 140 NaCl, 4 KCl, 2 CaCl2, 1 MgCl2, 5 glucose and 10 HEPES (pH 7.4, osmolarity 298 mOsm), that was used throughout the experiments.
# HwTx-IV analogues were investigated on CHO cells expressing hNav1.7 channel and HEK-293 cells expressing hNaV1.6 channel using the automated patch-clamp system from Nanion (SyncroPatch 384 PE; München, Germany). Chips with single-hole and high-resistance (∼6–7 MΩ) were used for both cell lines. Voltage pulses and whole-cell recordings were achieved using the PatchControl384 v1.5.2 software (Nanion) and the Biomek v1.0 interface (Beckman Coulter). Prior to recordings, dissociated cells were shaken at 200 RPM in a cell hotel reservoir at 10°C. After cell catching, sealing, whole-cell formation, liquid application, recording, and data acquisition were all performed sequentially and automatically. The intracellular solution contained (in mM): 110 CsF, 10 CsCl, 10 NaCl, 1 MgCl2, 1 CaCl2, 10 EGTA and 10 HEPES (pH 7.2, osmolarity 280 mOsm), and the extracellular solution was as described above. Whole-cell experiments were done at −100 mV holding potential and at room temperature (18–22°C), while currents triggered at either −10 or 0 mV test potential were sampled at 20 kHz. Stimulation frequency was set at 0.2 Hz. Each HwTx-IV analogue was prepared at various concentrations in the extracellular solution, itself supplemented with 0.3% of bovine serum albumin (BSA), also added in the control solution. […] Compound solutions were diluted 3 times in the patch-clamp recording well by adding 30–60 μl external solution, to reach the final reported concentration and the test volume of 90 μl. For establishing dose-response curves, the compounds were tested at a test potential of either −10 or 0 mV for 50 ms with a pulse every 5 s. Percentages of current inhibition were measured at steady-state of blockage or at the end of a 15-min application time.
# hNaV1.6 channel = target: T2, hNaV1.6 channel (Homo sapiens, UniProt Q9UQD0); experiment: Automated patch-clamp block of hNaV1.6 peak Na+ current in HEK-293 cells; assay type: cell-based; conditions: for pIC50: HEK-293 cells stably expressing hNaV1.6, SyncroPatch 384 PE whole-cell, holding -100 mV, 0 mV test pulse 50 ms every 5 s, room temperature 18-22°C, 0.3% BSA, steady state or end of 15-min application, mean, S.E.M. and n cells; for hNaV1.6 IC50 versus WT: ratio of analogue mean IC50 to HwTx-IV WT mean IC50 on hNaV1.6
# T2 construct: expressed in transfected cells
# Experimental: as §1
# HwTx-IV analogues were investigated on CHO cells expressing hNav1.7 channel and HEK-293 cells expressing hNaV1.6 channel using the automated patch-clamp system from Nanion (SyncroPatch 384 PE; München, Germany). Chips with single-hole and high-resistance (∼6–7 MΩ) were used for both cell lines. Voltage pulses and whole-cell recordings were achieved using the PatchControl384 v1.5.2 software (Nanion) and the Biomek v1.0 interface (Beckman Coulter). Prior to recordings, dissociated cells were shaken at 200 RPM in a cell hotel reservoir at 10°C. After cell catching, sealing, whole-cell formation, liquid application, recording, and data acquisition were all performed sequentially and automatically. The intracellular solution contained (in mM): 110 CsF, 10 CsCl, 10 NaCl, 1 MgCl2, 1 CaCl2, 10 EGTA and 10 HEPES (pH 7.2, osmolarity 280 mOsm), and the extracellular solution was as described above. Whole-cell experiments were done at −100 mV holding potential and at room temperature (18–22°C), while currents triggered at either −10 or 0 mV test potential were sampled at 20 kHz. Stimulation frequency was set at 0.2 Hz. Each HwTx-IV analogue was prepared at various concentrations in the extracellular solution, itself supplemented with 0.3% of bovine serum albumin (BSA), also added in the control solution. The peptides were distributed in 384-well microplates according to the number of compounds to be tested (generally four), the concentration range defined from the IC50 of wild-type HwTx-IV, and the number of cells desired for each experimental condition. Compound solutions were diluted 3 times in the patch-clamp recording well by adding 30–60 μl external solution, to reach the final reported concentration and the test volume of 90 μl. For establishing dose-response curves, the compounds were tested at a test potential of either −10 or 0 mV for 50 ms with a pulse every 5 s. Percentages of current inhibition were measured at steady-state of blockage or at the end of a 15-min application time.
# T1 sequence (Q15858 whole entry): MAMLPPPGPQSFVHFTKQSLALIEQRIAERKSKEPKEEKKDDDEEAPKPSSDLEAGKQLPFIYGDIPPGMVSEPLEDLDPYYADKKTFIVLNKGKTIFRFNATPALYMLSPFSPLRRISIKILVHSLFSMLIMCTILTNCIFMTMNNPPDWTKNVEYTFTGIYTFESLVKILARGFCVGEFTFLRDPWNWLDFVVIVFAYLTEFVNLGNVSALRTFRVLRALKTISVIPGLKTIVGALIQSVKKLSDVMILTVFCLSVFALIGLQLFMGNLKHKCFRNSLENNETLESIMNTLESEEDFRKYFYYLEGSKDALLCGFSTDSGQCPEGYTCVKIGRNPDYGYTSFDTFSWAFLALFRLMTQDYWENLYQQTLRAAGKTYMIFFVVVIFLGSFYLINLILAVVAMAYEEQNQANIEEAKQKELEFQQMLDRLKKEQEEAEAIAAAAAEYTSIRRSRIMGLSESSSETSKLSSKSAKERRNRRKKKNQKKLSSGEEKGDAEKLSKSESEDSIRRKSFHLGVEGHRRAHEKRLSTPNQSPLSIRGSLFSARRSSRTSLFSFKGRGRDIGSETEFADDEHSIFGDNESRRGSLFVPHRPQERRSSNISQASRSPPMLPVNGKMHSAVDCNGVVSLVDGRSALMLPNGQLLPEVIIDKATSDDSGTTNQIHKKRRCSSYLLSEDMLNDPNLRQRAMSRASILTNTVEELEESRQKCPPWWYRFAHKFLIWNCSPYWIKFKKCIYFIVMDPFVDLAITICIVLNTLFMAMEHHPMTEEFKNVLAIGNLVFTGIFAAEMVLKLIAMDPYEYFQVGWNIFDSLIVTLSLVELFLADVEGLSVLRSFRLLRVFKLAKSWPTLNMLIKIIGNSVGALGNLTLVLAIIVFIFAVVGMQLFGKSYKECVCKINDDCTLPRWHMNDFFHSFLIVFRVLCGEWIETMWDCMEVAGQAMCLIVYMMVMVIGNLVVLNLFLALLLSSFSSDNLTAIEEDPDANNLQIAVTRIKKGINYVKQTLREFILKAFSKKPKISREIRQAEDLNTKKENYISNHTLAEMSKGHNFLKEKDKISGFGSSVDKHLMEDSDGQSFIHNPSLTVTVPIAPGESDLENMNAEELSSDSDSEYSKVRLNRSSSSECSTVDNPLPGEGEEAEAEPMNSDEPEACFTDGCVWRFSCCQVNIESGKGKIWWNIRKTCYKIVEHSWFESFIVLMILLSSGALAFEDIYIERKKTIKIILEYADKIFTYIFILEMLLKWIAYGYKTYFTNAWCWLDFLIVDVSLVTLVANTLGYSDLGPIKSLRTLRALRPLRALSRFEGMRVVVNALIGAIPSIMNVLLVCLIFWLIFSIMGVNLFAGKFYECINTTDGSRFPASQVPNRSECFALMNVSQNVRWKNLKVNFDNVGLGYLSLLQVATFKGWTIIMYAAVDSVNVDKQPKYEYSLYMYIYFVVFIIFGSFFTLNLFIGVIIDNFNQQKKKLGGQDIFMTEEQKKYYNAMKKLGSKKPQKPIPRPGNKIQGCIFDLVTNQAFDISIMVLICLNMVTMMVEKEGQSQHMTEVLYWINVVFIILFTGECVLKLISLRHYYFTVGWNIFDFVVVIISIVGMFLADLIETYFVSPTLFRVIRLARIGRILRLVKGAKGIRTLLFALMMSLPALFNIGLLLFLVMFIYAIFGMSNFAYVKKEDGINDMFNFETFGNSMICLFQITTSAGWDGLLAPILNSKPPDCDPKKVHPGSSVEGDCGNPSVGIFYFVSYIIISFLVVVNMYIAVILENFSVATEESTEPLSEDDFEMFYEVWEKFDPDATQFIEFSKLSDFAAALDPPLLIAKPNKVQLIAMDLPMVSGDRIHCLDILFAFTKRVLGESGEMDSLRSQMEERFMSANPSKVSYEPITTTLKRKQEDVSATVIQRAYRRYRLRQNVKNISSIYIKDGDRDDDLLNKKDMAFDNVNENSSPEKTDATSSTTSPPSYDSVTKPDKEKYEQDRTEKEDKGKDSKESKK
# T2 sequence (Q9UQD0 whole entry): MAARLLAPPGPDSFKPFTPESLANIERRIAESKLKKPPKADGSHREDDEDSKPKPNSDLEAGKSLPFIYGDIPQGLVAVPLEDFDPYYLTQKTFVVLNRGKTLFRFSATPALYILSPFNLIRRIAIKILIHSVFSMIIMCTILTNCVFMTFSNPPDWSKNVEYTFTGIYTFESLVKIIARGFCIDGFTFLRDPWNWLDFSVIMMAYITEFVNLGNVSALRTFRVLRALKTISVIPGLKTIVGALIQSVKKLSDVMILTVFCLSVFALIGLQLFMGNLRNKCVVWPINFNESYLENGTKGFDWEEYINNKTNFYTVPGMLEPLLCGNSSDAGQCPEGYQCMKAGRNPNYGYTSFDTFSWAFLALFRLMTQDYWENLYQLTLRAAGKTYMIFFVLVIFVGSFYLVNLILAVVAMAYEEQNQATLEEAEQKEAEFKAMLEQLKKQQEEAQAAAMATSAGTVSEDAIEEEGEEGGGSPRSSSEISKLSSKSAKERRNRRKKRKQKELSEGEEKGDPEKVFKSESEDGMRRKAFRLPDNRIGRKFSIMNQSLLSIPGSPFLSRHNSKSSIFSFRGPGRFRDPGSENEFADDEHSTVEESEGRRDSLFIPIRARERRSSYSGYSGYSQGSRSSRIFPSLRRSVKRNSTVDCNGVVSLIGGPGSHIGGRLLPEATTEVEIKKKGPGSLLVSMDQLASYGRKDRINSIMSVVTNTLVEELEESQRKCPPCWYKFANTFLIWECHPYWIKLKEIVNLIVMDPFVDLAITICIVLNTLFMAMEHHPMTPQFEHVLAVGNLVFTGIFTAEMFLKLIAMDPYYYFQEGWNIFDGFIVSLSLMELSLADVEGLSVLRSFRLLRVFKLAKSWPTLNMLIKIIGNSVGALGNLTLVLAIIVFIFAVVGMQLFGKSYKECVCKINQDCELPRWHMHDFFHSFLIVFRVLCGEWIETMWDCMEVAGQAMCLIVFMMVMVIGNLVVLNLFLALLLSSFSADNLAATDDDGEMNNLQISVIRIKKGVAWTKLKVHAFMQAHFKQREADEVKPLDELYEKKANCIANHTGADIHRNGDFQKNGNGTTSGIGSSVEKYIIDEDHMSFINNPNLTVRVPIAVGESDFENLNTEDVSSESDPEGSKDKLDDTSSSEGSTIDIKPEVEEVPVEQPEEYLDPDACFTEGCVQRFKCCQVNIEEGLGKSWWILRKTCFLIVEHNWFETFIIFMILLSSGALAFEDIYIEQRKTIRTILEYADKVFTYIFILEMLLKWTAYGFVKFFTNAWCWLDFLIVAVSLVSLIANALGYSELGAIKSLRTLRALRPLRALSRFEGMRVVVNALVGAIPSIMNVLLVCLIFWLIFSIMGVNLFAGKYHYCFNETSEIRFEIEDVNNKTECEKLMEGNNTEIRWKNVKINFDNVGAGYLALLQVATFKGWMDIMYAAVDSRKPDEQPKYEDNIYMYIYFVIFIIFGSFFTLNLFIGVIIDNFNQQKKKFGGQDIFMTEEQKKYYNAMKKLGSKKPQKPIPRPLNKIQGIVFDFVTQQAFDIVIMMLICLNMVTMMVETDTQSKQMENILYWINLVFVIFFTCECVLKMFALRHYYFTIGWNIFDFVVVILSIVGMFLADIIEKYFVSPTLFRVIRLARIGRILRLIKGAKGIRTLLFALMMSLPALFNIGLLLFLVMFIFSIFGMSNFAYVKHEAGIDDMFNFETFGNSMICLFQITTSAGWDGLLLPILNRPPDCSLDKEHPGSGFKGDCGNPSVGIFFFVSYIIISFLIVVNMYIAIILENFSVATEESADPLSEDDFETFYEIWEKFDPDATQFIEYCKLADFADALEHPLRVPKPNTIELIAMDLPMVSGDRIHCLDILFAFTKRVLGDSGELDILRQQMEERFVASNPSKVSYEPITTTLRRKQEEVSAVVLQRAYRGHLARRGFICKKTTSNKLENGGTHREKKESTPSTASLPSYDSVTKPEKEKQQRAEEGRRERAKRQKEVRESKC
compound,measurement,setting,value
CC[C@H](C)[C@H](NC(=O)[C@H](CCC(N)=O)NC(=O)[C@H](Cc1ccc(O)cc1)NC(=O)[C@H](CCCCN)NC(=O)[C@@H]1CSSC[C@@H]2NC(=O)[C@H](CCC(N)=O)NC(=O)[C@H](CC(=O)O)NC(=O)[C@H](CC(N)=O)NC(=O)[C@H](CO)NC(=O)[C@@H]3CCCN3C(=O)[C@H](CC(N)=O)NC(=O)[C@@H]3CSSC[C@H](NC(=O)[C@H](C(C)C)NC(=O)[C@H](CC(C)C)NC(=O)[C@H](CCCCN)NC(=O)[C@H](CO)NC(=O)[C@H](CO)NC(=O)[C@H](CCCCN)NC(=O)[C@H](CSSC[C@H](NC(=O)[C@@H](N)CCC(=O)O)C(=O)N[C@@H](CC(C)C)C(=O)N[C@@H](CCC(=O)O)C(=O)N[C@@H]([C@@H](C)CC)C(=O)N[C@@H](Cc4ccccc4)C(=O)N[C@@H](CCCCN)C(=O)N[C@@H](C)C(=O)N3)NC2=O)C(=O)N[C@@H](CO)C(=O)N[C@@H](CCCNC(=N)N)C(=O)N[C@@H](CCCCN)C(=O)N[C@@H]([C@@H](C)O)C(=O)N[C@@H](CCCNC(=N)N)C(=O)N[C@@H](Cc2c[nH]c3ccccc23)C(=O)N1)C(=O)O [HwTx-IV CterCOOH],pIC50,hNaV1.7 channel,6.75
same,hNaV1.7 IC50 versus WT,hNaV1.7 channel,17.81
same,pIC50,hNaV1.6 channel,5.91
same,hNaV1.6 IC50 versus WT,hNaV1.6 channel,5.43
CC[C@H](C)[C@H](NC(=O)[C@H](CCC(N)=O)NC(=O)[C@H](Cc1ccc(O)cc1)NC(=O)[C@H](CCCCN)NC(=O)[C@@H]1CSSC[C@@H]2NC(=O)[C@H](CCC(N)=O)NC(=O)[C@H](CC(=O)O)NC(=O)[C@H](CC(N)=O)NC(=O)[C@H](CO)NC(=O)[C@@H]3CCCN3C(=O)[C@H](CC(N)=O)NC(=O)[C@@H]3CSSC[C@H](NC(=O)[C@H](C(C)C)NC(=O)[C@H](CC(C)C)NC(=O)[C@H](CCCCN)NC(=O)[C@H](CO)NC(=O)[C@H](CO)NC(=O)[C@H](C)NC(=O)[C@H](CSSC[C@H](NC(=O)CN)C(=O)N[C@@H](CC(C)C)C(=O)NCC(=O)N[C@@H]([C@@H](C)CC)C(=O)N[C@@H](Cc4ccccc4)C(=O)N[C@@H](CCCCN)C(=O)N[C@@H](C)C(=O)N3)NC2=O)C(=O)N[C@@H](CO)C(=O)N[C@@H](CCCNC(=N)N)C(=O)N[C@@H](CCCCN)C(=O)N[C@@H]([C@@H](C)O)C(=O)N[C@@H](CCCNC(=N)N)C(=O)N[C@@H](Cc2c[nH]c3ccccc23)C(=O)N1)C(N)=O [HwTx-IV E^1G/E^4G/K^18A],pIC50,hNaV1.7 channel,9.10
same,hNaV1.7 IC50 versus WT,hNaV1.7 channel,0.08
same,pIC50,hNaV1.6 channel,8.31
same,hNaV1.6 IC50 versus WT,hNaV1.6 channel,0.02
CC[C@H](C)[C@H](NC(=O)[C@H](CCC(N)=O)NC(=O)[C@H](Cc1ccc(O)cc1)NC(=O)[C@H](CCCCN)NC(=O)[C@@H]1CSSC[C@@H]2NC(=O)[C@H](CCC(N)=O)NC(=O)[C@H](CC(=O)O)NC(=O)[C@H](CC(N)=O)NC(=O)[C@H](CO)NC(=O)[C@@H]3CCCN3C(=O)[C@H](CC(N)=O)NC(=O)[C@@H]3CSSC[C@H](NC(=O)[C@H](C(C)C)NC(=O)[C@H](CC(C)C)NC(=O)[C@H](CCCCN)NC(=O)[C@H](CO)NC(=O)[C@H](CO)NC(=O)[C@H](CCCCN)NC(=O)[C@H](CSSC[C@H](NC(=O)CN)C(=O)N[C@@H](CC(C)C)C(=O)NCC(=O)N[C@@H]([C@@H](C)CC)C(=O)N[C@@H](Cc4ccccc4)C(=O)N[C@@H](CCCCN)C(=O)N[C@@H](C)C(=O)N3)NC2=O)C(=O)N[C@@H](CO)C(=O)N[C@@H](CCCNC(=N)N)C(=O)N[C@@H](CCCCN)C(=O)N[C@@H]([C@@H](C)O)C(=O)N[C@@H](CCCNC(=N)N)C(=O)N[C@@H](Cc2c[nH]c3ccccc23)C(=O)N1)C(N)=O [HwTx-IV E^1G/E^4G],pIC50,hNaV1.7 channel,8.70
same,hNaV1.7/hNaV1.6 selectivity ratio,hNaV1.7 channel; inverse ratio of the mean IC50 values on hNaV1.7 (CHO) and hNaV1.6 (HEK-293) of Table 1,less than 2
same,hNaV1.7 IC50 versus WT,hNaV1.7 channel,0.20
same,pIC50,hNaV1.6 channel,8.43
same,hNaV1.6 IC50 versus WT,hNaV1.6 channel,0.02
CC[C@H](C)[C@H](NC(=O)[C@H](CCC(N)=O)NC(=O)[C@H](Cc1ccc(O)cc1)NC(=O)[C@H](CCCCN)NC(=O)[C@@H]1CSSC[C@@H]2NC(=O)[C@H](CCC(N)=O)NC(=O)[C@H](CC(=O)O)NC(=O)[C@H](CC(N)=O)NC(=O)[C@H](CO)NC(=O)[C@@H]3CCCN3C(=O)[C@H](CC(N)=O)NC(=O)[C@@H]3CSSC[C@H](NC(=O)[C@H](C(C)C)NC(=O)[C@H](CC(C)C)NC(=O)[C@H](CCCCN)NC(=O)[C@H](CO)NC(=O)[C@H](CO)NC(=O)[C@H](CCCCN)NC(=O)[C@H](CSSC[C@H](NC(=O)[C@@H](N)CCC(=O)O)C(=O)N[C@@H](CC(C)C)C(=O)N[C@@H](CCC(=O)O)C(=O)N[C@@H]([C@@H](C)CC)C(=O)N[C@@H](Cc4ccccc4)C(=O)N[C@@H](CCCCN)C(=O)N[C@@H](C)C(=O)N3)NC2=O)C(=O)N[C@@H](CO)C(=O)N[C@@H](CCCNC(=N)N)C(=O)N[C@@H](CCCCN)C(=O)N[C@@H](Cc2c[nH]c3ccccc23)C(=O)N[C@@H](CCCNC(=N)N)C(=O)N[C@@H](Cc2c[nH]c3ccccc23)C(=O)N1)C(N)=O [HwTx-IV T^28W],pIC50,hNaV1.7 channel,6.94
same,hNaV1.7 IC50 versus WT,hNaV1.7 channel,11.53

# — article PMC8722715 (Frontiers in Cell and Developmental Biology, 2021)
